{"source": "patent US10022376B2", "about": "(Pfizer Inc., priority 2014, dated 2018)", "data": [{"test_system": "rhIFNγ stimulated STAT-3 phosphorylation in the A549 human epithelial cell line", "assay": "A549 Cell Assay: Inhibition of pSTAT3", "type": "cell-based", "details": "A549 cells", "procedure,_shortened": "(§1)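 Percent inhibition of STAT3 Tyr705 phosphorylation was measured by MSD immunoassay of cell lysates. A549 cells were given compound for 1 h at 37° C (final 0.3 nM to 10 μM, 0.1% DMSO, in 0.2% BSA DMEM), followed by 30 min of rhIFNγ stimulation at 20 ng/mL final. Unstimulated DMSO wells served as background.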", "units": {"IC50": "nM"}, "values": [{"smiles": "CCc1cc(O)cc(C)c1-c1cc2[nH]ncc2c(NCc2ccccc2N(C)S(C)(=O)=O)n1", "note": "[Example 156]", "IC50": 72.4}]}, {"test_system": "rhIFNγ stimulated STAT-3 phosphorylation in the A549 human epithelial cell line", "assay": "A549 Cell Assay: Inhibition of pSTAT3", "type": "cell-based", "details": "Homo sapiens; A549 cells", "procedure,_shortened": "as §1", "units": {"IC50": "nM"}, "values": [{"smiles": "CCN(c1ncc(F)cc1CNc1nc(-c2cc(F)c(O)cc2CC(F)(F)F)cc2[nH]nc(C(N)=O)c12)S(C)(=O)=O", "note": "[Example 79, 4-[({2-[ethyl(methylsulfonyl)amino]-5-fluoropyridin-3-yl}methyl)amino]-6-[5-fluoro-4-hydroxy-2-(2,2,2-trifluoroethyl)phenyl]-1H-pyrazolo[4,3-c]pyridine-3-carboxamide]", "IC50": 30.7}, {"smiles": "CNC(=O)c1n[nH]c2nc(-c3cc(F)c(O)cc3CC(F)(F)F)nc(NCc3cc(O)ccc3N(C)S(=O)(=O)c3ccccc3)c12", "note": "[Example 106, 4-((2-(N-Methylphenylsulfonamido)-5-hydroxybenzyl)amino)-6-(5-fluoro-4-hydroxy-2-(2,2,2-trifluoroethyl)phenyl)-N-methyl-1H-pyrazolo[3,4-d]pyrimidine-3-carboxamide]", "IC50": 2520}, {"smiles": "CCc1cc(O)c(F)cc1-c1cc2[nH]nc(C(=O)NC)c2c(NCCc2ccc(O)cc2)n1", "note": "[Example 4, 6-(2-ethyl-5-fluoro-4-hydroxyphenyl)-4-{[2-(4-hydroxyphenyl)ethyl]amino}-N-methyl-1H-pyrazolo[4,3-c]pyridine-3-carboxamide]", "IC50": 29.7}, {"smiles": "CNC(=O)c1n[nH]c2cc(-c3cc(F)c(O)cc3CC(F)(F)F)nc(NCc3cc(C)ccc3N(C)S(C)(=O)=O)c12", "note": "[Example 11, 6-[5-fluoro-4-hydroxy-2-(2,2,2-trifluoroethyl)phenyl]-N-methyl-4-({5-methyl-2-[methyl(methylsulfonyl)amino]benzyl}amino)-1H-pyrazolo[4,3-c]pyridine-3-carboxamide]", "IC50": 72.4}, {"smiles": "CCc1cc(O)c(F)cc1-c1cc2[nH]nc(C(=O)NC)c2c(NCc2c(F)cccc2N(C)S(C)(=O)=O)n1", "note": "[Example 8, 6-(2-ethyl-5-fluoro-4-hydroxyphenyl)-4-({2-fluoro-6-[methyl(methylsulfonyl)amino]benzyl}amino)-N-methyl-1H-pyrazolo[4,3-c]pyridine-3-carboxamide]", "IC50": 6.4}, {"smiles": "CN(c1ccc(O)cc1CNc1nc(-c2cc(F)c(O)cc2CC(F)(F)F)nc2[nH]nc(C(N)=O)c12)S(=O)(=O)c1ccccc1", "note": "[Example 108, 4-((2-(N-methylphenylsulfonamido)-5-hydroxybenzyl)amino)-6-(5-fluoro-4-hydroxy-2-(2,2,2-trifluoroethyl)phenyl)-1H-pyrazolo[3,4-d]pyrimidine-3-carboxamide]", "IC50": 1500}, {"smiles": "CCN(c1ccc(O)cc1CNc1nc(-c2cc(F)c(O)cc2CC(F)(F)F)cc2[nH]nc(C(=O)NC)c12)S(C)(=O)=O", "note": "[Example 34, 4-({2-[ethyl(methylsulfonyl)amino]-5-hydroxybenzyl}amino)-6-[5-fluoro-4-hydroxy-2-(2,2,2-trifluoroethyl)phenyl]-N-methyl-1H-pyrazolo[4,3-c]pyridine-3-carboxamide]", "IC50": 301}, {"smiles": "CCN(c1ccccc1CNc1nc(-c2cc(F)c(O)cc2CC(F)(F)F)cc2[nH]nc(C(=O)NC)c12)S(=O)(=O)CC", "note": "[Example 1, 4-({2-[Ethyl(ethylsulfonyl)amino]benzyl}amino)-6-[5-fluoro-4-hydroxy-2-(2,2,2-trifluoroethyl)phenyl]-N-methyl-1H-pyrazolo[4,3-c]pyridine-3-carboxamide]", "IC50": 67.4}, {"smiles": "CCc1cc(O)c(F)cc1-c1cc2[nH]nc(C(=O)NC)c2c(NCc2ccccc2N(C)S(=O)(=O)CC)n1", "note": "[Example 3, 6-(2-ethyl-5-fluoro-4-hydroxyphenyl)-4-({2-[(ethylsulfonyl)(methyl)amino]benzyl}amino)-N-methyl-1H-pyrazolo[4,3-c]pyridine-3-carboxamide]", "IC50": 16.2}, {"smiles": "CNC(=O)c1n[nH]c2cc(-c3cc(F)c(O)cc3CC(F)(F)F)nc(NCc3cccnc3N(C)S(C)(=O)=O)c12", "note": "[Example 53, 6-[5-fluoro-4-hydroxy-2-(2,2,2-trifluoroethyl)phenyl]-N-methyl-4-[({2-[methyl(methylsulfonyl)amino]pyridin-3-yl}methyl)amino]-1H-pyrazolo[4,3-c]pyridine-3-carboxamide]", "IC50": 21.3}, {"smiles": "CNC(=O)c1n[nH]c2cc(-c3cc(F)c(O)cc3CC(F)(F)F)nc(NCc3ccccc3CS(N)(=O)=O)c12", "note": "[Example 64, 6-[5-fluoro-4-hydroxy-2-(2,2,2-trifluoroethyl)phenyl]-N-methyl-4-{[2-(sulfamoylmethyl)benzyl]amino}-1H-pyrazolo[4,3-c]pyridine-3-carboxamide]", "IC50": 213}, {"smiles": "CNC(=O)c1n[nH]c2nc(-c3cc(F)c(O)cc3CC(F)(F)F)nc(NCc3cc(F)ccc3N(C)S(C)(=O)=O)c12", "note": "[Example 104, 4-((5-fluoro-2-(N-methylmethylsulfonamido)benzyl)amino)-6-(5-fluoro-4-hydroxy-2-(2,2,2-trifluoroethyl)phenyl)-N-methyl-1H-pyrazolo[3,4-d]pyrimidine-3-carboxamide]", "IC50": 292}, {"smiles": "CNC(=O)c1n[nH]c2cc(-c3cc(F)c(O)cc3CC(F)(F)F)nc(NCC3CCCC3)c12", "note": "[Example 17, 4-[(cyclopentylmethyl)amino]-6-[5-fluoro-4-hydroxy-2-(2,2,2-trifluoroethyl)phenyl]-N-methyl-1H-pyrazolo[4,3-c]pyridine-3-carboxamide]", "IC50": 174}, {"smiles": "CCN(c1nccnc1CNc1nc(-c2cc(F)c(O)cc2CC(F)(F)F)cc2[nH]nc(C(N)=O)c12)S(C)(=O)=O", "note": "[Example 80, 4-[({3-[ethyl(methylsulfonyl)amino]pyrazin-2-yl}methyl)amino]-6-[5-fluoro-4-hydroxy-2-(2,2,2-trifluoroethyl)phenyl]-1H-pyrazolo[4,3-c]pyridine-3-carboxamide]", "IC50": 197}, {"smiles": "CNC(=O)c1n[nH]c2cc(-c3cc(F)c(O)cc3C3CC3)nc(NCc3cccnc3N(C)S(C)(=O)=O)c12", "note": "[Example 49, 6-(2-cyclopropyl-5-fluoro-4-hydroxyphenyl)-N-methyl-4-[({2-[methyl(methylsulfonyl)amino]pyridin-3-yl}methyl)amino]-1H-pyrazolo[4,3-c]pyridine-3-carboxamide]", "IC50": 385}, {"smiles": "CN(c1ccccc1CNc1nc(-c2cc(F)c(O)cc2CC(F)(F)F)nc2[nH]nc(C(N)=O)c12)S(=O)(=O)c1ccccc1", "note": "[Example 96, 6-(5-Fluoro-4-hydroxy-2-(2,2,2-trifluoroethyl)phenyl)-4-((2-(N-methylphenylsulfonamido)benzyl)amino)-1H-pyrazolo[3,4-d]pyrimidine-3-carboxamide]", "IC50": 2870}, {"smiles": "CCc1cc(O)c(F)cc1-c1cc2[nH]nc(C(=O)NC)c2c(N[C@H](C)c2ccccc2N(C)S(C)(=O)=O)n1", "note": "[Example 38, 6-(2-Ethyl-5-fluoro-4-hydroxyphenyl)-N-methyl-4-{[(1R)-1-{2-[methyl(methylsulfonyl)amino]phenyl}ethyl]amino}-1H-pyrazolo[4,3-c]pyridine-3-carboxamide]", "IC50": 30.8}, {"smiles": "Cc1ccc(S(=O)(=O)N(C)c2ccccc2CNc2nc(-c3cc(F)c(O)cc3CC(F)(F)F)cc3[nH]nc(C(N)=O)c23)cn1", "note": "[Example 70, 6-[5-fluoro-4-hydroxy-2-(2,2,2-trifluoroethyl)phenyl]-4-[(2-{methyl[(6-methylpyridin-3-yl)sulfonyl]amino}benzyl)amino]-1H-pyrazolo[4,3-c]pyridine-3-carboxamide]", "IC50": 46.2}]}]}
